Measurements taken from BigSolDB 2.1.

## CC(=O)c1c(C)cc(C(C)(C)C)cc1C
In acetone, 273.15 K
  solubility (mole fraction): 0.308
In acetone, 278.15 K
  solubility (mole fraction): 0.346
In acetone, 283.15 K
  solubility (mole fraction): 0.393
In acetone, 288.15 K
  solubility (mole fraction): 0.445
In acetone, 293.15 K
  solubility (mole fraction): 0.505
In acetone, 298.15 K
  solubility (mole fraction): 0.568
In acetone, 303.15 K
  solubility (mole fraction): 0.64
In acetone, 308.15 K
  solubility (mole fraction): 0.728
In acetonitrile, 273.15 K
  solubility (mole fraction): 0.188
In acetonitrile, 278.15 K
  solubility (mole fraction): 0.235
In acetonitrile, 283.15 K
  solubility (mole fraction): 0.291
In acetonitrile, 288.15 K
  solubility (mole fraction): 0.355
In acetonitrile, 293.15 K
  solubility (mole fraction): 0.428
In acetonitrile, 298.15 K
  solubility (mole fraction): 0.521
In acetonitrile, 303.15 K
  solubility (mole fraction): 0.623
In acetonitrile, 308.15 K
  solubility (mole fraction): 0.739
In cyclohexane, 273.15 K
  solubility (mole fraction): 0.279
In cyclohexane, 278.15 K
  solubility (mole fraction): 0.337
In cyclohexane, 283.15 K
  solubility (mole fraction): 0.407
In cyclohexane, 288.15 K
  solubility (mole fraction): 0.48
In cyclohexane, 293.15 K
  solubility (mole fraction): 0.56
In cyclohexane, 298.15 K
  solubility (mole fraction): 0.645
In cyclohexane, 303.15 K
  solubility (mole fraction): 0.735
In cyclohexane, 308.15 K
  solubility (mole fraction): 0.832
In ethanol, 273.15 K
  solubility (mole fraction): 0.0701
In ethanol, 278.15 K
  solubility (mole fraction): 0.095
In ethanol, 283.15 K
  solubility (mole fraction): 0.14
In ethanol, 288.15 K
  solubility (mole fraction): 0.196
In ethanol, 293.15 K
  solubility (mole fraction): 0.27
In ethanol, 298.15 K
  solubility (mole fraction): 0.37
In ethanol, 303.15 K
  solubility (mole fraction): 0.52
In ethanol, 308.15 K
  solubility (mole fraction): 0.705
In ethyl acetate, 273.15 K
  solubility (mole fraction): 0.376
In ethyl acetate, 278.15 K
  solubility (mole fraction): 0.427
In ethyl acetate, 283.15 K
  solubility (mole fraction): 0.479
In ethyl acetate, 288.15 K
  solubility (mole fraction): 0.539
In ethyl acetate, 293.15 K
  solubility (mole fraction): 0.603
In ethyl acetate, 298.15 K
  solubility (mole fraction): 0.673
In ethyl acetate, 303.15 K
  solubility (mole fraction): 0.741
In ethyl acetate, 308.15 K
  solubility (mole fraction): 0.817
In isopropanol, 273.15 K
  solubility (mole fraction): 0.073
In isopropanol, 278.15 K
  solubility (mole fraction): 0.101
In isopropanol, 283.15 K
  solubility (mole fraction): 0.146
In isopropanol, 288.15 K
  solubility (mole fraction): 0.206
In isopropanol, 293.15 K
  solubility (mole fraction): 0.288
In isopropanol, 298.15 K
  solubility (mole fraction): 0.391
In isopropanol, 303.15 K
  solubility (mole fraction): 0.542
In isopropanol, 308.15 K
  solubility (mole fraction): 0.729
In methanol, 273.15 K
  solubility (mole fraction): 0.0607
In methanol, 278.15 K
  solubility (mole fraction): 0.0828
In methanol, 283.15 K
  solubility (mole fraction): 0.116
In methanol, 288.15 K
  solubility (mole fraction): 0.16
In methanol, 293.15 K
  solubility (mole fraction): 0.228
In methanol, 298.15 K
  solubility (mole fraction): 0.339
In methanol, 303.15 K
  solubility (mole fraction): 0.478
In methanol, 308.15 K
  solubility (mole fraction): 0.667
In n-octanol, 273.15 K
  solubility (mole fraction): 0.123
In n-octanol, 278.15 K
  solubility (mole fraction): 0.161
In n-octanol, 283.15 K
  solubility (mole fraction): 0.205
In n-octanol, 288.15 K
  solubility (mole fraction): 0.27
In n-octanol, 293.15 K
  solubility (mole fraction): 0.354
In n-octanol, 298.15 K
  solubility (mole fraction): 0.46
In n-octanol, 303.15 K
  solubility (mole fraction): 0.6
In n-octanol, 308.15 K
  solubility (mole fraction): 0.761
